This note sets out measurements from patent US20120136583A1, “METHOD FOR PREDICTING EFFICACY OF DRUGS IN A PATIENT” (WORLDWIDE INNOVATIVE NETWORK, priority 2009, published 2012).

Experiment [1] relates to bronchial adenocarcinoma T4 with bones and pleural metastases. The settings on record: Example 2 patient.
Experiment [2] deals with non-small cell lung carcinoma (NSCLC), cT4, N0, M1. The experiment in a line: Clinical course under treatment, patient of Example 1. The class given is in vivo, human. The settings on record: Example 1 patient.
The test system of experiment [3] is primary bronchial adenocarcinoma with bilateral pulmonary metastases and asymptomatic cerebral metastases. In words: Clinical course under treatment, patient of Example 3. The class given is in vivo, human. Particulars: Example 3 patient. The source says:
A patient was diagnosized in May 2007 for a primary bronchial adenocarcinoma with bilateral pulmonary metastases and asymptomatic cerebral metastases. A surgical treatment has been carried out in November 2008 and two therapeutic lines have been used, namely thirteen cycles of cisplatin-gemcitabin for the first line and Alimta for the second one.
However, based on this score table, avastin associated with a score of 384 has been selected.

Consider `CCC1=C[C@@H]2CN(C1)Cc1c([nH]c3ccccc13)[C@@](C(=O)OC)(c1cc3c(cc1OC)N(C)[C@H]1[C@@](O)(C(=O)OC)[C@H](OC(C)=O)[C@]4(CC)C=CCN5CC[C@]31[C@@H]54)C2` [VINORELBINE], for which the “Clinical response / disease status under treatment” value (shortened to “Clinical response / disease status”) in experiment [1] is given as “Three months later, the disease was stable, then progressed”. Take `CCOc1cc2ncc(C#N)c(Nc3ccc(OCc4ccccn4)c(Cl)c3)c2cc1NC(=O)/C=C/CN(C)C` [HKI 272]: in experiment [2], the “Clinical response / disease status” value is on record as “efficient” and the “Time on treatment until disease progression” value was 37 months. On to `Nc1nc2[nH]cc(CCc3ccc(C(=O)N[C@@H](CCC(=O)O)C(=O)O)cc3)c2c(=O)[nH]1` [PEMETREXED], for which the “Clinical response / disease status” value in experiment [3] was “disease progression”. Regarding `C#Cc1cccc(Nc2ncnc3cc(OCCOC)c(OCCOC)cc23)c1` [Tarceva], the “Clinical response / disease status” value in experiment [1] is “inefficient and led to a rapid progression”.

Regarding “BEVACIZUMAB: drug whose major target gene is VEGFA”, in experiment [3], the “Clinical response / disease status” value is listed as “major response”.
